Reference: paper PMC12337661, “PIEZO1 mechanical insensitivity in generalized lymphatic dysplasia with the potential for pharmacological rescue” (iScience, 2025)

Assays:
Assay in all cases: Intracellular Ca2+ measurement (fura-2), T-REx-293 cells transiently transfected
Format in all cases: cell-based
E829V hPIEZO1 = molecular target: T1, E829V hPIEZO1 (Homo sapiens, UniProt Q92508, E829V); settings: 1 μM Y1, versus WT
T1 construct: expressed in transfected cells; host or cells: T-REx-293 (modified HEK293), transient
T1 sequence (Q92508 whole entry E829V): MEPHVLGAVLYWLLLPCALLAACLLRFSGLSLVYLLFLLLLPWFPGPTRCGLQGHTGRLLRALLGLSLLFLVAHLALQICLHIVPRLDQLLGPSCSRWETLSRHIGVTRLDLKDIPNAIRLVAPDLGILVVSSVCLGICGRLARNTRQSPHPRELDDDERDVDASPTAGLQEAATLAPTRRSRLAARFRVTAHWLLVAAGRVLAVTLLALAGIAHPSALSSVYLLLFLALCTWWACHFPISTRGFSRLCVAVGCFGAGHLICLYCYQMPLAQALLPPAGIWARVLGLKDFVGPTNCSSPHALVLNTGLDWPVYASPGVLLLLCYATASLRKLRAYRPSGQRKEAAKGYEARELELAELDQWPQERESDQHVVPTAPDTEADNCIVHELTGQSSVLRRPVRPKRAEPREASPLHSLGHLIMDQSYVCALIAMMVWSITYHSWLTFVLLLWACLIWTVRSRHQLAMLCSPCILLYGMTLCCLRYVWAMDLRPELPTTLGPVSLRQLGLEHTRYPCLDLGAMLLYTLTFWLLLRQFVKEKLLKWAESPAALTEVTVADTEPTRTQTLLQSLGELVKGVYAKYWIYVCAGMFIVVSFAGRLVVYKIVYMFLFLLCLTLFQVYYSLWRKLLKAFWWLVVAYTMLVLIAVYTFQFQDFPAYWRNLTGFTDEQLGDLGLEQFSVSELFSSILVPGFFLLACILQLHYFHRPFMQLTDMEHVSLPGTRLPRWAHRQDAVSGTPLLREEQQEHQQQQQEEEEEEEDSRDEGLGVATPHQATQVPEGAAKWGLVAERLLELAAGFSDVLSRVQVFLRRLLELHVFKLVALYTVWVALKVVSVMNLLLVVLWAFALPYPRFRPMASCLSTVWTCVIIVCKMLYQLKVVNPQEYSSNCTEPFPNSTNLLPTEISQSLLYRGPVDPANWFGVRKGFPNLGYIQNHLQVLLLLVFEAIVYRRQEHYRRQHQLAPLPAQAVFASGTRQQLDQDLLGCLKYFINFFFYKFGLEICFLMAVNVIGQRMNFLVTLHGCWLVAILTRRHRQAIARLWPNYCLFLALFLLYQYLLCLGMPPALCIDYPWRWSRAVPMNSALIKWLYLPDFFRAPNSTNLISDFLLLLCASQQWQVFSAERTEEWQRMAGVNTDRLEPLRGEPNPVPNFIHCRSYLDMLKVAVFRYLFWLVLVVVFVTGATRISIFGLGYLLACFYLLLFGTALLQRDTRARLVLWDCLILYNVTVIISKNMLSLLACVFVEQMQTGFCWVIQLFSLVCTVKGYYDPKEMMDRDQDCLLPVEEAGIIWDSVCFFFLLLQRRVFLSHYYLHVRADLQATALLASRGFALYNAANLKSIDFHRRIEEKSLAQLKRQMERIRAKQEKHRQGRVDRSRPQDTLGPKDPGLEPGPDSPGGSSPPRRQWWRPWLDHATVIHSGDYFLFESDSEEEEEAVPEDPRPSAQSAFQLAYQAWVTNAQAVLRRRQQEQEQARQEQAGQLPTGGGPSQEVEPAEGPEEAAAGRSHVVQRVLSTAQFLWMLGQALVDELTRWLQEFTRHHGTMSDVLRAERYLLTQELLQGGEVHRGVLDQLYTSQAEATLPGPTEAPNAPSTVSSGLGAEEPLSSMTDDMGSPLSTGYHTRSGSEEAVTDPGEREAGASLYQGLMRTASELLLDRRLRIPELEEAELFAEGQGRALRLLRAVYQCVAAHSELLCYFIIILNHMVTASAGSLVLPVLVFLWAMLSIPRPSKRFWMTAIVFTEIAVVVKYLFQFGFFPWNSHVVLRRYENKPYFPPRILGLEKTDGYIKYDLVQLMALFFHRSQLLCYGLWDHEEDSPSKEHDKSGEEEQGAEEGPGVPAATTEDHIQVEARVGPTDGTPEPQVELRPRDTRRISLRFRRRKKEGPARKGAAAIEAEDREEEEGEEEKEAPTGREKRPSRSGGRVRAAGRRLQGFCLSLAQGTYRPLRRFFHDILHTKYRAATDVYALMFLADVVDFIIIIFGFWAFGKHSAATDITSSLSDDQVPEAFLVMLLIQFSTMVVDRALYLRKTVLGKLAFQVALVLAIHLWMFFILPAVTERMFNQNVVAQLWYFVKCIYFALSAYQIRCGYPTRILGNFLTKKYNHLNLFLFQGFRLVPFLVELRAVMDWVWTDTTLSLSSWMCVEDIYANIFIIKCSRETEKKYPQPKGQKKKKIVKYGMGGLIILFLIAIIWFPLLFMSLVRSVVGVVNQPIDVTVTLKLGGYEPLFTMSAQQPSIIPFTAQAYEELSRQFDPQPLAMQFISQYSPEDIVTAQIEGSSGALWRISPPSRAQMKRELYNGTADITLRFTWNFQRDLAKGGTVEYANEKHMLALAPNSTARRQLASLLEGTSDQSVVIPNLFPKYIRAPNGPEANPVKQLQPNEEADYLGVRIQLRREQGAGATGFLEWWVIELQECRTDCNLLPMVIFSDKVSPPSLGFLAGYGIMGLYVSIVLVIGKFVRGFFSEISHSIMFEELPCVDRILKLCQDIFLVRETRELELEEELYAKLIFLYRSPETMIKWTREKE
Procedure: (§1) HEK 293 cell line was transiently transfected at 90% confluence using Lipofectamine 2000 (Invitrogen) in OptiMEM (Gibco). Briefly: 500 ng endotoxin-free DNA per 100μL OptiMEM was prepared alongside 3μL Lipofectamine 2000 per 100μL OptiMEM (Gibco). Both were incubated for 5 min and then mixed, and then incubated at room temperature (21°C–24°C) for 20–30 min. Finally, the transfection mix was gently added dropwise to the cells and the cells were placed in a humidified incubator at 37°C supplied with 5% CO2 for 5 h. Medium was replaced afterward, and cells were used for experimentation 48 h after transfection.
(§2) For intracellular Ca^2+ assays, cells were plated at 80–90% confluence in 96-well plates 24 h prior to recordings (6–8 × 10^4 cells per well). […] Cells were washed with SBS and incubated at room temperature for 20 min prior to recordings. Equal volumes of 2x concentrated compounds were injected to test for acute channel activation. Pre-incubation with compounds occurred during the 20 min prior to recordings. To expose cell membranes to hypo-osmolality, an equal volume of hypotonic SBS (containing only 35 mM NaCl) was injected onto the cells. Measurements were made on a fluorescence plate reader (Flexstation III, Molecular Devices) at room temperature (21 ± 2°C). Fura-2 was excited at 340 nm and 380 nm and emitted light collected at 510 nm, with measurements shown as the change in fluorescence (F) ratio (ΔF340/380).
(§3) KC41 (Dooku1) was prepared as described.[28] All purchased chemicals and solvents were used without further purification unless otherwise stated. All compounds were at least 95% pure by 1H NMR. 1H Nuclear Magnetic Resonance spectra were recorded at 500 MHz using a Bruker DRX 500 instrument or at 400 MHz using a Bruker DPX 400. 1H spectra are referenced based on the residual proton in the solvent (e.g., the CHCl3, 0.01% in 99.99% CDCl3). Coupling constants (J) are reported to the nearest 0.1 Hz. 13C NMR spectra were recorded at 125 MHz on 500 MHz spectrometers or at 100 MHz on 400 MHz spectrometers. LC-MS was performed on a Bruker Daltronics running a gradient of increasing acetonitrile (5–95%) in H2O both containing 0.1% formic acid at 1 mL.min^−1, on a short path C18 reverse phase column, detecting compounds with both a diode array detector and a Bruker mass spectrum analyser. HRMS was performed on a Bruker Daltonics micrOTOF using positive electrospray ionisation (ES+). Automated column chromatograph was carried out using a Biotage Isolera Four, using either Sfär Silica D or KP-Silica cartridges. HPLC was performed on an Agilent 1290 Infinity Series equipped with a UV detector and Hyperprep C18 reverse phase column. Key to NMR abbreviations: s (singlet), br s (broad singlet) d (doublet), dd (doublet of doublets), ddd (doublet of doublets of doublets), t (triplet), dt (doublet of triples), q (quartet), m (multiplet), ap. t (apparent triplet). For experiments, Yoda1 and its analogues were prepared as 10 mM stock solutions in 100% dimethyl sulfoxide (DMSO) before serial dilution in DMSO and final dilution in aqueous solution. Cells were exposed to 0.1% DMSO for all concentrations of the compounds from 0 to 10 μM.

G1978D hPIEZO1 = molecular target: T2, G1978D hPIEZO1 (Homo sapiens, UniProt Q92508, G1978D); settings: 1 μM Y1, versus WT
T2 construct: expressed in transfected cells; host or cells: T-REx-293 (modified HEK293), transient
T2 sequence (Q92508 whole entry G1978D): as the sequence (Q92508 whole entry E829V) above, with V829E, G1978D counted along it
Procedure: as §1, §2, §3

I2270T hPIEZO1 = molecular target: T3, I2270T hPIEZO1 (Homo sapiens, UniProt Q92508, I2270T)
T3 construct: expressed in transfected cells; host or cells: T-REx-293 (modified HEK293), transient
T3 sequence (Q92508 whole entry I2270T): as the sequence (Q92508 whole entry E829V) above, with V829E, I2270T counted along it
Procedure: as §1, §2, §3

R2335Q hPIEZO1 = molecular target: T4, R2335Q hPIEZO1 (Homo sapiens, UniProt Q92508, R2335Q); settings: 1 μM Y1, versus WT
T4 construct: expressed in transfected cells; host or cells: T-REx-293 (modified HEK293), transient
T4 sequence (Q92508 whole entry R2335Q): as the sequence (Q92508 whole entry E829V) above, with V829E, R2335Q counted along it
Procedure: as §1, §2, §3

WT hPIEZO1 = molecular target: T5, WT hPIEZO1 (Homo sapiens, UniProt Q92508); settings: 1 μM
T5 construct: expressed in transfected cells; host or cells: T-REx-293 (modified HEK293), transient
T5 sequence (Q92508 whole entry): as the sequence (Q92508 whole entry E829V) above, with V829E counted along it
Procedure: as §1, §2, §3

Effect on hPIEZO1 channel function (E829V hPIEZO1): reduced 1 μM Y1 effect | Effect on hPIEZO1 channel function (G1978D hPIEZO1): reduced 1 μM Y1 effect | Effect on hPIEZO1 channel function (I2270T hPIEZO1; 1 μM Y1, versus WT): loss of MA: LOF; reduced 1 μM Y1 effect | Ca2+ signal 30-60 s after application, normalized to WT, vector control subtracted, Mean (I2270T hPIEZO1; 1 μM, n = 4): 0.1013 | fluorescence (ΔFratio) (I2270T hPIEZO1; 1 μM, time 0 s): 6.26E-04 | fluorescence (ΔFratio) (I2270T hPIEZO1; 1 μM, time 5 s): -0.00991 | fluorescence (ΔFratio) (I2270T hPIEZO1; 1 μM, time 10 s): -0.00857 | fluorescence (ΔFratio) (I2270T hPIEZO1; 1 μM, time 15 s): 0.00155 | fluorescence (ΔFratio) (I2270T hPIEZO1; 1 μM, time 20 s): 0.00344 | fluorescence (ΔFratio) (I2270T hPIEZO1; 1 μM, time 25 s): 0.01286 | fluorescence (ΔFratio) (I2270T hPIEZO1; 1 μM, time 30 s): -0.01023 | fluorescence (ΔFratio) (I2270T hPIEZO1; 1 μM, time 35 s): -0.00138 | fluorescence (ΔFratio) (I2270T hPIEZO1; 1 μM, time 40 s): 0.07241 | fluorescence (ΔFratio) (I2270T hPIEZO1; 1 μM, time 45 s): 0.05056 | fluorescence (ΔFratio) (I2270T hPIEZO1; 1 μM, time 50 s): 0.06632 | fluorescence (ΔFratio) (I2270T hPIEZO1; 1 μM, time 55 s): 0.05818 | fluorescence (ΔFratio) (I2270T hPIEZO1; 1 μM, time 60 s): 0.06863 | fluorescence (ΔFratio) (I2270T hPIEZO1; 1 μM, time 65 s): 0.05602 | fluorescence (ΔFratio) (I2270T hPIEZO1; 1 μM, time 70 s): 0.06799 | fluorescence (ΔFratio) (I2270T hPIEZO1; 1 μM, time 75 s): 0.05186 | fluorescence (ΔFratio) (I2270T hPIEZO1; 1 μM, time 80 s): 0.04949 | fluorescence (ΔFratio) (I2270T hPIEZO1; 1 μM, time 85 s): 0.05597 | fluorescence (ΔFratio) (I2270T hPIEZO1; 1 μM, time 90 s): 0.06467 | fluorescence (ΔFratio) (I2270T hPIEZO1; 1 μM, time 95 s): 0.02814 | fluorescence (ΔFratio) (I2270T hPIEZO1; 1 μM, time 100 s): 0.04731 | fluorescence (ΔFratio) (I2270T hPIEZO1; 1 μM, time 105 s): 0.04051 | fluorescence (ΔFratio) (I2270T hPIEZO1; 1 μM, time 110 s): 0.04381 | fluorescence (ΔFratio) (I2270T hPIEZO1; 1 μM, time 115 s): 0.05647 | fluorescence (ΔFratio) (I2270T hPIEZO1; 1 μM, time 120 s): 0.06513 | fluorescence (ΔFratio) (I2270T hPIEZO1; 1 μM, time 125 s): 0.04171 | Effect on hPIEZO1 channel function (R2335Q hPIEZO1): reduced 1 μM Y1 effect | fluorescence (ΔFratio) (WT hPIEZO1; time 0 s): -0.01302 | fluorescence (ΔFratio) (WT hPIEZO1; time 5 s): -0.00371 | fluorescence (ΔFratio) (WT hPIEZO1; time 10 s): 0.00261 | fluorescence (ΔFratio) (WT hPIEZO1; time 15 s): 0.01821 | fluorescence (ΔFratio) (WT hPIEZO1; time 20 s): -9.97E-05 | fluorescence (ΔFratio) (WT hPIEZO1; time 25 s): -0.004 | fluorescence (ΔFratio) (WT hPIEZO1; time 30 s): -0.05053 | fluorescence (ΔFratio) (WT hPIEZO1; time 35 s): 0.02247 | fluorescence (ΔFratio) (WT hPIEZO1; time 40 s): 0.1718 | fluorescence (ΔFratio) (WT hPIEZO1; time 45 s): 0.1972 | fluorescence (ΔFratio) (WT hPIEZO1; time 50 s): 0.2136 | fluorescence (ΔFratio) (WT hPIEZO1; time 55 s): 0.2004 | fluorescence (ΔFratio) (WT hPIEZO1; time 60 s): 0.1986 | fluorescence (ΔFratio) (WT hPIEZO1; time 65 s): 0.1996 | fluorescence (ΔFratio) (WT hPIEZO1; time 70 s): 0.1871 | fluorescence (ΔFratio) (WT hPIEZO1; time 75 s): 0.1803 | fluorescence (ΔFratio) (WT hPIEZO1; time 80 s): 0.1839 | fluorescence (ΔFratio) (WT hPIEZO1; time 85 s): 0.1791 | fluorescence (ΔFratio) (WT hPIEZO1; time 90 s): 0.1817 | fluorescence (ΔFratio) (WT hPIEZO1; time 95 s): 0.1659 | fluorescence (ΔFratio) (WT hPIEZO1; time 100 s): 0.1565 | fluorescence (ΔFratio) (WT hPIEZO1; time 105 s): 0.1608 | fluorescence (ΔFratio) (WT hPIEZO1; time 110 s): 0.1552 | fluorescence (ΔFratio) (WT hPIEZO1; time 115 s): 0.1355 | fluorescence (ΔFratio) (WT hPIEZO1; time 120 s): 0.1385 | fluorescence (ΔFratio) (WT hPIEZO1; time 125 s): 0.172
SMILES: Clc1cccc(Cl)c1CSc1nnc(-c2cnccn2)s1 [Yoda1]
